From article PMC12164026, “Plant-derived nodule-specific cysteine-rich peptides as potent antifungal agents against Cryptococcus neoformans: mechanisms of action, chimeric peptide enhancement, and immunomodulatory effects” (Current Research in Microbial Sciences, 2025)
Peptide text beside a SMILES is read from it.

Tests used:
[1] = tested on: Cryptococcus neoformans IFM 5844; assay: Minimal fungicidal concentration (MFC) determination, spotting on YPD; type: cell-based; settings: cultures from MIC assays diluted and spotted onto solid YPD, 30 °C, 48 h
Description: Minimal fungicidal concentration (MFC) determination. To assess fungicidal activity, both control and peptide-treated cultures from the MIC assays were diluted 10-fold and 100-fold in sterile distilled water. Five µL from each dilution was then spotted onto solid YPD medium (1 % pepton, 1 % dextrose, 0.5 % yeast extract, 2 % agar). The plates were incubated at 30 °C for 48 h and fungal growth was evaluated. MFC was defined as the lowest peptide concentration at which no visible fungal growth was detected, indicating complete fungicidal activity.

J774.2 mouse macrophages = assay: Phagocytosis of peptide-treated C. neoformans cells by macrophages, imaging flow cytometry; type: cell-based; settings: yeast cells pre-treated with 3.12 µM peptide for 15 min, 5:1 yeast-to-macrophage ratio
Description: C. neoformans was cultivated for 16 h at 30 °C, collected by centrifugation (5000 g, 5 min), and washed twice with sterile distilled water and once with PBS. […] After 15 min of incubation at 30 °C, the peptide-containing solution was removed by centrifugation, and the C. neoformans cells were washed with PBS and re-suspended in 100 µL PBS. Untreated C. neoformans cells served as controls.
To label C. neoformans cells, the suspension was supplemented with 11 µL of 1 M Na₂CO₃ (pH 10) and 2 µL of Alexa Fluor 488-labelled-concanavalin (Invitrogen, Waltham, MA, US), followed by incubation at room temperature for 30 min, protected from light. After PBS washing, the cell density was determined using a Bürker chamber and adjusted to the required concentration. […]
Following incubation, cells from each technical replicate were collected by centrifugation (200 g, 10 min), washed once with PBS, and re-suspended in 100 µL PBS buffer for detection. A random selection of 1000 macrophages was evaluated in each experimental sample, and the proportion of macrophages harboring fluorescently labelled C. neoformans cells was quantified utilizing imaging flow cytometry (FlowSight®, Amnis-EMD Millipore) equipped with a 488-nm excitation laser, with data analysis conducted through the IDEAS software platform.

CSCC[C@H](NC(=O)[C@H](CCCCN)NC(=O)[C@H](Cc1ccccc1)NC(=O)[C@H](CC(N)=O)NC(=O)[C@H](CC(C)C)NC(=O)[C@@H]1CCCN1C(=O)[C@@H](N)CCCNC(=N)N)C(=O)N[C@@H](CC(C)C)C(=O)N[C@@H](CCCNC(=N)N)C(=O)N[C@@H](Cc1ccccc1)C(=O)N[C@@H](Cc1c[nH]c2ccccc12)C(=O)NCC(=O)N[C@@H](CCC(N)=O)C(=O)N[C@@H](CCC(N)=O)C(=O)N[C@@H](CCC(N)=O)C(=O)N[C@@H](CS)C(=O)N[C@@H](CCCNC(=N)N)C(=O)N[C@@H](CCCNC(=N)N)C(=O)N1CCC[C@H]1C(=O)N[C@@H](CC(C)C)C(=O)N[C@@H](Cc1ccc(O)cc1)C(=O)N[C@@H](CS)C(=O)N[C@@H](CCCNC(=N)N)C(=O)N[C@@H](CCCNC(=N)N)C(=O)N[C@@H](CCCNC(=N)N)C(N)=O [X1-NCR247C] (H-RPLNFKMLRFWGQQQCRRPLYCRRR-NH2; N-terminus assumed)
fungistatic or fungicide mode of action [1]: fungicidal effect | percentage of phagocytic macrophages (J774.2 mouse macrophages; 30 min post-infection, untreated control 5.12 %): 7.95% | percentage of phagocytic macrophages (J774.2 mouse macrophages; 60 min post-infection, untreated control 6.95 %): 33.95%
